Columns and labels:
Type in all cases: in vivo, human
[1] = tested on: rapid upper gut transit and diarrhea; experiment: Continued pre-meal oleate/oleic acid treatment: diarrhea, stool output, symptoms
Source text: Continuing oleic acid treatment at home was offered to Aresponders≅ (i.e., patients who experienced a greater than 100% increase in baseline transit time with 3.2 g oleic acid). Of the 36 responders out of the original 45 patients, 18 provided records of stool volume and frequency on- and off-treatment for comparison. The inconvenient and unappealing nature of stool collection and measurement were the primary reasons reported by responders who chose not to participate in stool collection. After completing a set of three preliminary breath hydrogen tests, each participating responder was asked to refrain from taking oleic acid for two days in order to measure off-treatment stool output for a 24-hour period. Patients were issued a stool pattern record form and a stool collection container with graduated volume markings to record the frequency and volume of bowel movements. After two days without oleic acid, each patient took 3.2 g of oleic acid mixed with 25 mL of Ensure emulsion three times a day, 30 minutes before breakfast, lunch and dinner. After taking oleic acid for two days, patients recorded stool output for another 24-hour period. With this oleic acid emulsion treatment, stool frequency decreased from 6.9±0.8 to 5.4±0.9 bowel movements per 24-hour period (p<0.05), and stool volume decreased from 1829.0±368.6 to 1322.5±256.9 per 24-hour period (p<0.05).
The patient was a person with a history of adolescent-onset, persistent diarrhea. […] They presented with complaints of excessive gas, postprandial bloating, diarrhea and urgency, and 3 to 7 liquid bowel movements per day. Their upper gut transit times were (min) 30 (0 g oleic acid), 117 (1.6 g oleic acid) and 101 (3.2 g oleic acid).

[2] = tested on: SIBO; experiment: Neomycin/antibiotic treatment of subjects with fibromyalgia and SIBO
Source text: Of these 37, 28 tested positive for SIBO.
These ten subjects reported a 63±19% overall improvement in their symptoms by VAS scoring. FIG. 3 compares the VAS scores for various symptoms reported by the subjects with a suspected diagnosis of fibromyalgia before and after neomycin treatment. Symptoms included bloating, gas, diarrhea, joint pain and fatigue to treatment. Subjects were asked to identify the symptom most improved. Five subjects reported that pain was the most improved; three subjects reported that the level of fatigue was most improved, and two others reported that their abdominal complaints improved the most. There was a negative correlation between the degree of improvement in the VAS scoring and the amount of residual hydrogen peak seen in LBHT. (Pearson=−0.689, p=0.02; FIG. 4).
Subsequently, forty-six human subjects with FM (ACR criteria) entered a double blind randomized placebo controlled trial. Each subject underwent LBHT, a tender point examination and completed a questionnaire at the initial (baseline) and at every subsequent visit. Subjects were randomized to receive neomycin (500 mg twice daily in liquid form) or a matched placebo, for 10 days. After completion of this treatment, subjects with persistent SIBO received antibiotics (open label) until at least partially eradication was confirmed by LBHT. […] Six out of 20 patients (30%) in the neomycin group achieved complete […] eradication in the blinded arm. […] (Initial data in Table 1a).

[3] = tested on: SIBO; experiment: Neomycin treatment of subjects with IBS and SIBO (LBHT, VAS)
Description: Subjects were tested after an overnight fast. At time zero, each subject swallowed 15 ml of Chronulac formula, delivering 10 g of lactulose; every 5-20 min thereafter, for 2-4 hours, a 50 cm^3 end-expiratory breath sample was taken with an airtight sampling bag. Each breath sample was then analyzed for hydrogen content with a gas chromatograph (Quintron Model DP, Quintron Instrument Co., Division of E.F. Brewer Co, Menomonee Falls, Wis. 53051), standardized using a QuinGas standard as instructed by the manufacturer. Hydrogen peaks were plotted before and after an antimicrobial treatment regimen for comparison. The normal range for the second hydrogen peak was 0 to 20 ppm.
The two hundred-two (202) human subjects were assessed for SIBO with LBHT. Of the 202 subjects in the database, 95 claimed to have been given a diagnosis of IBS. […] After these 22 subjects were excluded, 73 subjects remained.
Of the 124, 92 (74%) were positive for SIBO. […] Therefore, the incidence of SIBO among the 110 untreated subjects was 92 (84%), showing a strong association between a suspected diagnosis of IBS and the presence of SIBO. After neomycin treatment (500 mg twice daily for ten days), 23 of these 92 returned for follow-up testing. On a visual analog scores (VAS), subjects were asked to rate their degree of post-treatment improvement. These 23 subjects reported a 60±31% improvement, although 17 had only partial eradication of SIBO, based on their LBHT results. (FIG. 1).
There was a likely selection bias in the database due to the fact that subjects were referred for LBHT, because their physicians suspected they had SIBO. To correct for this bias, a pilot study was also conducted looking at the incidence of bacterial overgrowth in patients with IBS. […] Eight human subjects with a suspected diagnosis of IBS, based on the Rome criteria, were tested for SIBO, using LBHT as described in Example 2. […] Six of the 7 subjects testing positive for SIBO returned approximately 10 days after completion of a 10 day course of neomycin as described above. […] The six subjects reported an average improvement in their IBS symptoms of 65±28% (Range: 20-100%) on VAS scoring.

Row | Compound | diarrhea ([1]; all five patients, prolonged ingestion 15-30 minutes prior to meals) | chronic abdominal pain, post prandial bloating and nausea ([1]; patient with Crohn's disease) | weight gained ([1]; patient with Crohn's disease) | postprandial dumping syndrome ([1]; patient with vagotomy and antrectomy) | patients achieving complete eradication of SIBO in the blinded arm ([2]; six out of 20, 500 mg twice daily liquid, 10 days) | eradication of SIBO (post-treatment LBHT) ([2]; ten fibromyalgia subjects) | overall improvement in symptoms by VAS scoring ([2]; ten fibromyalgia subjects, 500 mg twice daily, 10-day course) | degree of post-treatment improvement (VAS) ([3]; 23 IBS subjects with SIBO, 500 mg twice daily for ten days) | subjects with only partial eradication of SIBO (LBHT) ([3]; of the 23 returning subjects) | average improvement in IBS symptoms on VAS scoring ([3]; pilot study, six subjects) | post-treatment breath hydrogen peaks ([3]; pilot study, six subjects) | range of improvement in IBS symptoms on VAS scoring ([3]; pilot study, six subjects) | eradication of SIBO (LBHT) ([3]; pilot study, six subjects, 10 day course)
1 | CCCCCCCC/C=C\CCCCCCCC(=O)[O-].[Na+] [oleate, sodium oleate] | reduced diarrhea | complete resolution | 22 lbs | resolution of postprandial dumping syndrome |  |  |  |  |  |  |  |  | 
2 | neomycin |  |  |  |  | 30% | at least partially eradicated | 63±19% | 60±31% | 17 | 65±28% | 0-20 ppm | 20-100% | completely eradicated

From patent US9358276B2, “Methods of diagnosing and treating small intestinal bacterial overgrowth (SIBO) and SIBO-related conditions” (Cedars-Sinai Medical Center, priority 1999, dated 2016)
